Reference: patent publication US20240025906A1 (NEURON23, INC., priority 2022, published 2024)
Like-named read-outs stand apart in the source and are kept apart here.

Columns and labels:
TYK2 JH2 = molecular target: T1, TYK2 JH2 (Homo sapiens, UniProt P29597); experiment: TYK2 JH2 binding assay (KINOMEscan KdELECT competitive binding); details: TYK2 JH2 domain
T1 construct: purchased DiscoverX (KINOMEscan KdELECT service); host or cells: E. coli BL21-derived (T7 phage display) or HEK-293
Summary of the method: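 The assay measures displacement of DNA- or phage-tagged TYK2 pseudokinase domain from an affinity resin; compound binding lowers the amount captured, read by qPCR. Incubation lasts 1 h at room temperature.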

[1] = tested on: JAK1/TYK2 pSTAT5 (Tyr694/699) in THP-1 cell line; experiment: IFNa-stimulated JAK1/TYK2 pSTAT5 (Tyr694/699) inhibition cellular assay, AlphaLISA; format: cell-based; details: Homo sapiens, THP-1 cells, AlphaLISA (Assay B)
Summary of the method: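 The readout is AlphaLISA signal at 615 nm for phospho-STAT5 in THP-1 lysates after IFNa stimulation (added at 100 ng/mL, 30 min, 37 °C). Cells had compound for 1 h beforehand across eight 6-fold concentrations up to 10000 nM final. IC50s are 4PL fits with bottom and Hill slope constrained.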

[2] = KINOMEscan KdELECT (Assay A), read-out: Biochemical TYK2_JH2_Kd
[3] = IFNa-stimulated, read-out: Cellular THP1_IFNa-pSTATS_IC50
[4] = KINOMEscan KdELECT (Assay A), read-out: Biochemical TYK2_DiscoverX_JH2_BND_Kd
[5] = IFNa-stimulated pSTAT5 (Tyr694/699), read-out: Cellular_THP1_IFNa-pSTATS_TYK2
[6] = DiscoverX KINOMEscan KdELECT (Assay A), read-out: Biochemical TYK2_DiscoverX_JH2_BND_Kd
[7] = IFNa-stimulated, read-out: Cellular_THP1_IFNa-pSTATS_TYK2

T1 sequence (P29597 589-875 limits assumed): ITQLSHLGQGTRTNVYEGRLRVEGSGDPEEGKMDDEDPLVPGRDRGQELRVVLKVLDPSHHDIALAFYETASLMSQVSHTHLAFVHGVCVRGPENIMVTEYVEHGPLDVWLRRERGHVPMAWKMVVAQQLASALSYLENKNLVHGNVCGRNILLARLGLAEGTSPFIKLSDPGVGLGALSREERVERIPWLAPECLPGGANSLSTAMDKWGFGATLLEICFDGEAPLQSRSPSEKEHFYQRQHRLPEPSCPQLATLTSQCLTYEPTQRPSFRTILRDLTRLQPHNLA

| SMILES | Kd (TYK2 JH2; [4]) [nM] | Kd (TYK2 JH2; [6]) [nM] | IC50 [1, 7] [nM] | also measured |
| --- | --- | --- | --- | --- |
| CNc1ncc(-c2cccc(S(C)(=O)=O)c2)c2cc(NC(=O)C3CC3)ncc12 [Example 29, N-(8-(methylamino)-5-(3-(methylsulfonyl)phenyl)-2,7-naphthyridin-3-yl)cyclopropanecarboxamide] | – | – | – | Kd (TYK2 JH2; [2]): ≤ 100 nM; IC50 [1, 3]: > 500 nM |
| CNc1ncc(-c2nc3ccc(N4CCO[C@H](C(C)(C)O)C4)cn3n2)c2cc(NC(=O)C3CC3)ncc12 [Example 1028] | ≤ 100 | – | – | IC50 [1, 5]: ≤ 500 nM |
| CNc1ncc(-c2nc3cc(OCCOC)ccc3o2)c2cc(NC(=O)C3CC3)ncc12 [Example 231, N-(5-(5-(2-methoxyethoxy)benzo[d]oxazol-2-yl)-8-(methylamino)-2,7-naphthyridin-3-yl)cyclopropanecarboxamide] | – | ≤ 100 | ≤ 500 | – |
| CNc1ncc(C23CC(C2)C3)c2cc(NC(=O)C3CC3)ncc12 [Example 844, N-(5-(bicyclo[1.1.1]pentan-1-yl)-8-(methylamino)-2,7-naphthyridin-3-yl)cyclopropanecarboxamide] | ≤ 100 | – | > 500 | – |
| C=C(c1ccccc1OC)c1cnc(NC)c2cnc(NC(=O)C3CC3)cc12 [Example 175] | – | – | – | Kd (TYK2 JH2; [2]): 100 to 1000 nM; IC50 [1, 3]: > 500 nM |
| CNc1ncc(-c2nc3cc(C(F)F)ccc3o2)c2cc(NC(=O)C3CC3)ncc12 [Example 244, N-(5-(5-(difluoromethyl)benzo[d]oxazol-2-yl)-8-(methylamino)-2,7-naphthyridin-3-yl)cyclopropanecarboxamide] | – | ≤ 100 | ≤ 500 | – |
| CNc1ncc(C#Cc2cccc(OC)c2)c2cc(NC(=O)C3CC3)ncc12 [Example 629, N-(5-((3-methoxyphenyl)ethynyl)-8-(methylamino)-2,7-naphthyridin-3-yl)cyclopropanecarboxamide] | ≤ 100 | – | ≤ 500 | – |
| CNc1ncc(-c2nc3ccc(N4CCO[C@H](C)C4)cn3n2)c2cc(NC(=O)[C@@H]3C[C@@H]3F)ncc12 [Example 549, (1S,2S)-2-fluoro-N-(8-(methylamino)-5-(6-((R)-2-methylmorpholino)-[1,2,4]triazolo[1,5-a]pyridin-2-yl)-2,7-naphthyridin-3-yl)cyclopropane-1-carboxamide] | – | ≤ 100 | ≤ 500 | – |
| CNc1ncc(-c2nc3cc(N4CCO[C@@H](C)C4)ccc3o2)c2cc(NC(=O)[C@H]3C[C@H]3C)ncc12 [Example 408, (1S,2R)-2-methyl-N-(8-(methylamino)-5-(5-((S)-2-methylmorpholino)benzo[d]oxazol-2-yl)-2,7-naphthyridin-3-yl)cyclopropane-1-carboxamide] | – | ≤ 100 | ≤ 500 | – |
| CNc1ncc(C#Cc2ccc3c(c2)CCC(COC)O3)c2cc(NC(=O)C3CC3)ncc12 (stereo not drawn) [Example 987, N-[5-[2-[2-(methoxymethyl)chroman-6-yl]ethynyl]-8-(methylamino)-2,7-naphthyridin-3-yl]cyclopropanecarobxamide] | ≤ 100 | – | ≤ 500 | – |
| CNc1ncc(C#Cc2ccc(OC)cn2)c2cc(NC(=O)N3CCOCC3)ncc12 [Example 1082, N-[5-[2-(5-methoxy-2-pyridyl)ethynyl]-8-(methylamino)-2,7-naphthyridin-3-yl]morpholine-4-carboxamide] | ≤ 100 | – | – | IC50 [1, 5]: ≤ 500 nM |
| CNc1ncc(-c2nc3ccc(C(F)(F)F)cn3n2)c2cc(NC(=O)C3CC3)ncc12 [Example 496, N-(8-(methylamino)-5-(6-(trifluoromethyl)-[1,2,4]triazolo[1,5-a]pyridin-2-yl)-2,7-naphthyridin-3-yl)cyclopropanecarboxamide] | – | ≤ 100 | ≤ 500 | – |
| CNc1ncc(C2=CCCCC2)c2cc(NC(=O)C3CC3)ncc12 [Example 69, N-(5-(cyclohex-1-en-1-yl)-8-(methylamino)-2,7-naphthyridin-3-yl)cyclopropanecarboxamide] | – | – | – | Kd (TYK2 JH2; [2]): ≤ 100 nM; IC50 [1, 3]: > 500 nM |
| CNc1ncc(COc2ccccc2)c2cc(NC(=O)C3CC3)ncc12 [Example 45, N-(8-(methylamino)-5-(phenoxymethyl)-2,7-naphthyridin-3-yl)cyclopropanecarboxamide] | – | – | – | Kd (TYK2 JH2; [2]): ≤ 100 nM; IC50 [1, 3]: > 500 nM |
| CCNc1ncc(C#Cc2ccc(OC)cn2)c2cc(NC(=O)C3CC3)ncc12 [Example 594, N-(8-(ethylamino)-5-((5-methoxypyridin-2-yl)ethynyl)-2,7-naphthyridin-3-yl)cyclopropanecarboxamide] | ≤ 100 | – | ≤ 500 | – |
| CNc1ncc(-c2nc3cc(C4CCN([C@]5(C)COC[C@@H]5O)CC4)ccc3o2)c2cc(NC(=O)C3CC3)ncc12 (single isomer, unassigned) [Example 262] | – | ≤ 100 | ≤ 500 | – |
| CNc1nccc2cc(NC(=O)C3CC3)nnc12 [Example 176, N-(8-(methylamino)pyrido[3,4-c]pyridazin-3-yl)cyclopropanecarboxamide] | – | – | – | Kd (TYK2 JH2; [2]): 100 to 1000 nM; IC50 [1, 3]: > 500 nM |
| CNc1ncc(-c2nc3cc(C(=O)O)ccc3o2)c2cc(NC(=O)C3CC3)ncc12 [Example 214, 2-(6-(cyclopropanecarboxamido)-1-(methylamino)-2,7-naphthyridin-4-yl)benzo[d]oxazole-5-carboxylic acid] | – | ≤ 100 | > 500 | – |
| CNc1ncc(C#Cc2ccncc2CCO)c2cc(NC(=O)C3CC3)ncc12 [Example 724, N-(5-((3-(2-hydroxyethyl)pyridin-4-yl)ethynyl)-8-(methylamino)-2,7-naphthyridin-3-yl)cyclopropanecarboxamide] | ≤ 100 | – | ≤ 500 | – |
| CNc1ncc(-c2nc3cc(N4CC[C@@H](OC)C4)ccc3o2)c2cc(NC(=O)C3CC3)ncc12 [Example 281, (R)-N-(5-(5-(3-methoxypyrrolidin-1-yl)benzo[d]oxazol-2-y1)-8-(methylamino)-2,7-naphthyridin-3-yl)cyclopropanecarboxamide] | – | ≤ 100 | ≤ 500 | – |
| CNc1ncc(-c2nc3cc(OC)ccc3o2)c2cc(Nc3ccc(N4CCOCC4)cn3)ncc12 [Example 380, 4-(5-methoxybenzo[d]oxazol-2-yl)-N^1-methyl-N^6-(5-morpholinopyridin-2-yl)-2,7-naphthyridine-1,6-diamine] | – | ≤ 100 | ≤ 500 | – |
| CNc1ncc(-c2cccc(-c3ncnn3C)c2)c2cc(NC(=O)C3CC3)ncc12 [Example 54, N-(5-(3-(1-methyl-1H-1,2,4-triazol-5-yl)phenyl)-8-(methylamino)-2,7-naphthyridin-3-yl)cyclopropanecarboxamide] | – | – | – | Kd (TYK2 JH2; [2]): ≤ 100 nM; IC50 [1, 3]: > 500 nM |
| CCn1ccc(-c2cnc(NC)c3cnc(NC(=O)C4CC4)cc23)n1 [Example 147, N-(5-(1-ethyl-1H-pyrazol-3-yl)-8-(methylamino)-2,7-naphthyridin-3-yl)cyclopropanecarboxamide] | – | – | – | Kd (TYK2 JH2; [2]): ≤ 100 nM; IC50 [1, 3]: ≤ 500 nM |
| CNc1ncc(-c2nc3c(N4CCC4COC)cccc3o2)c2cc(NC(=O)C3CC3)ncc12 (stereo not drawn) [Example 220, N-(5-(4-(2-(methoxymethyl)azetidin-1-yl)benzo[d]oxazol-2-yl)-8-(methylamino)-2,7-naphthyridin-3-yl)cyclopropanecarboxamide] | – | ≤ 100 | > 500 | – |
| [2H]C([2H])([2H])Nc1ncc(C#Cc2ccc3nc(C(F)F)n(C)c3c2)c2cc(NC(=O)C3CC3)ncc12 [Example 818, N-(5-((2-(difluoromethyl)-1-methyl-1H-benzo[d]imidazol-6-yl)ethynyl)-8-((methyl-d3)amino)-2,7-naphthyridin-3-yl)cyclopropanecarboxamide] | ≤ 100 | – | ≤ 500 | – |
| CNc1ncc(-c2nc3c(F)cc(N4CCOCC4)cn3n2)c2cc(NC(=O)C3CC3)ncc12 [Example 1036] | ≤ 100 | – | – | IC50 [1, 5]: ≤ 500 nM |
| CNc1ncc(C#Cc2ccncc2Cl)c2cc(NC(=O)C3CC3)ncc12 [Example 985, N-[5-[2-(3-chloro-4-pyridyl)ethynyl]-8-(methylamino)-2,7-naphthyridin-3-yl]cyclopropanecarboxamide] | ≤ 100 | – | ≤ 500 | – |
| CNc1ncc(-c2nc3cc(OC)ccc3o2)c2cc(NC(=O)[C@H]3C[C@@H]3C)ncc12 [Example 1060, (1S,2S)-N-(5-(5-methoxybenzo[d]oxazol-2-yl)-8-(methylamino)-2,7-naphthyridin-3-yl)-2-methylcyclopropane-1-carboxamide] | ≤ 100 | – | – | IC50 [1, 5]: ≤ 500 nM |
| CNc1ncc(-c2nc3c(OC)c(OC)ccc3o2)c2cc(NC(=O)C3CC3)ncc12 [Example 224, N-(5-(4,5-dimethoxybenzo[d]oxazol-2-yl)-8-(methylamino)-2,7-naphthyridin-3-yl)cyclopropanecarboxamide] | – | ≤ 100 | ≤ 500 | – |
| CNc1ncc(C#Cc2ccc3oc(C)nc3c2)c2cc(NC(=O)C3CC3)ncc12 [Example 801, N-(8-(methylamino)-5-((2-methylbenzo[d]oxazol-5-yl)ethynyl)-2,7-naphthyridin-3-yl)cyclopropanecarboxamide] | ≤ 100 | – | ≤ 500 | – |
